Results on five molecules are retold here after patent publication US20110281179A1, “NON-AQUEOUS ELECTROLYTIC SOLUTION, AND LITHIUM BATTERY COMPRISING SAME” (UBE INDUSTRIES, LTD., priority 2008, published 2011).

The nature of the data set: pKa (acid dissociation constant). In kind it is physicochemical. The source says: Here, the pKa value is also called an acid dissociation constant, and the pKa can be measured by an ordinary method. For example, the pKa can be determined in accordance with the method described in Experimental Chemistry Seminar 5 “Thermal Measurement and Equilibrium”, p. 460 (edited by the Chemical Society of Japan, published by Maruzen Company, Limited.).

Turning to `Oc1ccc(F)c(F)c1F` [2,3,4-Trifluorophenol], the pKa (in general, the negative logarithm of the acid dissociation constant) amounted to 6. Then `Oc1c(F)c(F)cc(F)c1F` [2,3,5,6-Tetrafluorophenol], with 5.5; and `Oc1ccc(F)cc1F` [2,4-Difluorophenol], with 8.4. Then `Oc1ccc(F)cc1` [4-Fluorophenol], with 9.9. With `Oc1c(Cl)c(Cl)c(Cl)c(Cl)c1Cl` [Pentachlorophenol] the figure was 4.7.
